ChEMBL document CHEMBL5620390, “A novel multifunctional mitochondrion-targeting NIR fluorophore probe inhibits tumour proliferation and metastasis through the PPARγ/ROS/β-catenin pathway” (Eur J Med Chem, 2023)
Activity calls are given as the source filed them. The rule behind the calls is not given here.

What was measured:
[1] = system: A-375; experiment: Inhibition of Wnt/beta-catenin signaling in human A-375 cells assessed as reduction in beta-catenin expression at 1.25 uM preincubated with rosiglitazone for 24 hrs followed by compound addition and measured after 24 hrs in presence of H2O2; type: cell-based
[2] = system: A-375; experiment: Inhibition of cell metastasis in human A-375 cells assessed as reduction in MMP9 protein level at 0.31 to 1.25 uM after 24 hrs by Western blotting analysis; type: functional, cell-based; settings: dose 0.31-1.25 µM
[3] = system: B16-F10; experiment: Induction of mitochondrial damage in mouse B16-F10 cells assessed as change in mitochondrial morphology at 2.5 uM incubated for 24 hrs by TEM analysis; type: functional, cell-based
[4] = Toxicity in C57BL/6J mouse inoculated with mouse B16-F10 cells assessed as reduction in body weight at 2 mg/kg, ip administered every other day and measured after 16 days; type: organism-based; settings: in vivo, 384 h, time 16 day
[5] = system: A-375; experiment: Inhibition of ROS generation in human A-375 cells preincubated with rosiglitazone for 2 hrs followed by wash out and compound addition for 1 hr by DCFH-DA staining based inverted fluorescence microscopic analysis; type: functional, cell-based
[6] = system: MDA-MB-231; experiment: Antiproliferative activity against human MDA-MB-231 cells assessed as inhibition of cell growth at 0.31 uM after 72 hrs by MTT assay; type: functional; parameters: scale not given: the % may be the effect or the level left
[7] = system: B16-F10; experiment: Inhibition of cell migration in mouse B16-F10 cells after 24 hrs by transwell assay; type: functional, cell-based; settings: dose 0.31-1.25 µM
[8] = system: HeLa; experiment: Antiproliferative activity against human HeLa cells assessed as inhibition of cell growth at 0.31 uM after 72 hrs by MTT assay; type: functional; parameters: scale not given: the % may be the effect or the level left
[9] = Drug uptake in human HeLa cells assessed as fluorescence intensity at 2.5 uM incubated for 1 hr by confocal laser scanning microscopic analysis; type: ADME, cell-based
[10] = system: A-375; experiment: Induction of ROS generation in human A-375 cells assessed as reduction in GPX1 expression level at 1.25 uM preincubated with rosiglitazone for 24 hrs followed by compound addition for 24 hrs; type: functional, cell-based
[11] = system: B16-F10; experiment: Antitumor activity against mouse Dil-stained B16-F10 cells inoculated in zebrafish assessed as reduction in tumor growth by measuring tumor fluorescence intensity at 0.31 to 1.25 uM by confocal microscopy analysis; type: functional, cell-based; settings: dose 0.31-1.25 µM
[12] = system: B16-F10; experiment: Antitumor activity against mouse B16-F10 cells inoculated in C57BL/6J mouse assessed as reduction in PPARgamma expression at 0.5 to 2 mg/kg, ip administered every other day and measured on day 22 by immunohistochemistry analysis; type: functional, organism-based; settings: dose 0.5-2 mg/kg, time 22.0 day
[13] = Drug uptake in human MDA-MB-231 cells assessed as fluorescence intensity at 2.5 uM incubated for 1 hr by confocal laser scanning microscopic analysis; type: ADME, cell-based; settings: mda-mb-231, 1 h
[14] = system: B16-F10; experiment: Induction of cell cycle arrest in mouse B16-F10 cells assessed as P27 protein accumulation at 0.31 to 1.25 uM after 24 hrs by Western blotting analysis; type: functional, cell-based; settings: dose 0.31-1.25 µM
[15] = system: B16-F10; experiment: Induction of ROS generation in mouse B16-F10 cells assessed as reduction in PPARgamma expression level at 1.25 uM incubated for 24 hrs; type: functional, cell-based
[16] = Toxicity in C57BL/6J mouse inoculated with mouse B16-F10 cells assessed as reduction in body weight at 2 mg/kg, ip administered every other day and measured after 14 days; type: organism-based; parameters: scale not given: the % may be the effect or the level left; settings: in vivo, 336 h, time 14 day
[17] = system: A-375; experiment: Induction of ROS generation in human A-375 cells assessed as reduction in SOD2 expression level at 1.25 uM preincubated with rosiglitazone for 24 hrs followed by compound addition for 24 hrs; type: functional, cell-based
[18] = Toxicity in C57BL/6J mouse inoculated with mouse B16-F10 cells assessed as effect on heart morphology at 2 mg/kg, ip administered every other day for 22 days by H and E staining based assay; type: organism-based; settings: in vivo, 528 h, time 22 day
[19] = system: A-375; experiment: Inhibition of Wnt/beta-catenin signaling in human A-375 cells assessed as reduction in TCF4 expression at 1.25 uM preincubated with rosiglitazone for 24 hrs followed by compound addition and measured after 24 hrs in presence of H2O2; type: cell-based
[20] = system: B16-F10; experiment: Inhibition of Wnt/beta-catenin signaling in mouse B16-F10 cells assessed as reduction in TCF4 expression at 1.25 uM incubated for 24 hrs; type: cell-based
[21] = system: A-375; experiment: Induction of cell cycle arrest in human A-375 cells assessed as P27 protein accumulation at 0.31 to 1.25 uM after 24 hrs by Western blotting analysis; type: functional, cell-based; settings: dose 0.31-1.25 µM
[22] = system: B16-F10; experiment: Antiproliferative activity against mouse B16-F10 cells assessed as inhibition of cell growth after 24 to 72 hrs by MTT assay; type: functional, cell-based
[23] = system: B16-F10; experiment: Inhibition of cell metastasis in mouse B16-F10 cells assessed as reduction in MMP9 protein level at 0.31 to 1.25 uM after 24 hrs by Western blotting analysis; type: functional, cell-based; settings: dose 0.31-1.25 µM

- Drug uptake [9]: Active
- Drug uptake [13]: Active
- IC50 [22]: 0.41 µM
Structure (SMILES): CC[N+]1=C(/C=C/C2=C(Cl)C(=C/C=C3\N(CCCCCC(=O)O/C(=N/C4CCCCC4)NC4CCCCC4)c4ccccc4C3(C)C)/CCC2)C(C)(C)c2ccccc21.[Br-]
- inhibition [1]: inactive
- inhibition [2]: Active
- Activity [3]: Active
- Activity [4]: Non-Toxic
- Activity [5]: Dose-Dependent Effect
- Activity [6]: 70%
- inhibition [7]: Dose-Dependent Effect
- Activity [8]: 70%
- Activity [10]: inactive
- Activity [11]: Active
- Activity [12]: Active
- Activity [14]: Active
- Activity [15]: Active
- Activity [16]: 13.5%
- Activity [17]: inactive
- Activity [18]: Non-Toxic
- inhibition [19]: inactive
- inhibition [20]: Active
- Activity [21]: Active
- Activity ([22]; time 24-72 hrs): Dose-Dependent Effect
- inhibition [23]: Active
